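Dose response: 5 concentrations. Exposure: 48 h. Format: 96-well plates. Endpoint: linear interpolation; highest concentration if not reached. Abbreviation: GI50, concentration required for 50% inhibition of growth.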 Calls of active or inactive are those of the source. Cut-off read from the data, not from the text of the source: active = GI50 up to about 1.1 µM and inactive = higher.
Legend:
Assay in all cases: NCI anticancer screen, dose series, 48 h
OVCAR-3 = tested on: OVCAR-3
HL-60 = tested on: HL-60
HCT-116 = tested on: HCT-116
EKVX = tested on: EKVX
SK-MEL-2 = tested on: SK-MEL-2
SNB-75 = tested on: SNB-75
Hs-578T = tested on: Hs-578T
MCF7 = tested on: MCF7
KM12 = tested on: KM12
SNB-19 = tested on: SNB-19
CAKI-1 = tested on: CAKI-1
HOP-92 = tested on: HOP-92
SF-268 = tested on: SF-268
SF-295 = tested on: SF-295
SK-OV-3 = tested on: SK-OV-3
PC-3 = tested on: PC-3
OVCAR-5 = tested on: OVCAR-5
K562 = tested on: K562
M14 = tested on: M14
MOLT-4 = tested on: MOLT-4

For `COC(=O)/C=C\C(C#N)(C#N)/N=C/c1sccc1C`, the GI50 (OVCAR-3) was 5050 nM (inactive), the GI50 (HL-60) was 1880 nM (inactive) and the GI50 (HCT-116) was 2430 nM (inactive). The GI50 (EKVX) was 3590 nM (inactive), the GI50 (SK-MEL-2) was 15800 nM (inactive) and the GI50 (SNB-75) was 14800 nM (inactive). For the same compound, the GI50 (Hs-578T) was 7780 nM (inactive), the GI50 (MCF7) was 1560 nM (inactive) and the GI50 (KM12) was 16200 nM (inactive). The GI50 (SNB-19) was 17300 nM (inactive), the GI50 (CAKI-1) was 1930 nM (inactive) and the GI50 (HOP-92) was 1910 nM (inactive). For the same compound, the GI50 (SF-268) was 12300 nM (inactive), the GI50 (SF-295) was 18200 nM (inactive) and the GI50 (SK-OV-3) was 18400 nM (inactive). For the same compound, the GI50 (PC-3) was 7600 nM (inactive), the GI50 (OVCAR-5) was 5260 nM (inactive) and the GI50 (K562) was 3300 nM (inactive). The GI50 (M14) was 2280 nM (inactive) and the GI50 (MOLT-4) was 1200 nM (inactive).
With `Cc1cc(N(C)C)c2ccccc2[n+]1CCCCCCCCCC[n+]1c(C)cc(N(C)C)c2ccccc21.[O-][Cl+3]([O-])([O-])[O-].[O-][Cl+3]([O-])([O-])[O-]` the GI50 (OVCAR-3) was 486 nM (active), the GI50 (HL-60) was 275 nM (active) and the GI50 (HCT-116) was 743 nM (active). For the same compound, the GI50 (EKVX) was 1320 nM (inactive), the GI50 (SK-MEL-2) was 962 nM (active) and the GI50 (SNB-75) was 470 nM (active). The GI50 (Hs-578T) was 1520 nM (inactive), the GI50 (MCF7) was 434 nM (active) and the GI50 (KM12) was 282 nM (active). For the same compound, the GI50 (SNB-19) was 512 nM (active), the GI50 (CAKI-1) was 7500 nM (inactive) and the GI50 (HOP-92) was 1640 nM (inactive). For the same compound, the GI50 (SF-268) was 731 nM (active), the GI50 (SF-295) was 1470 nM (inactive) and the GI50 (SK-OV-3) was 735 nM (active). For the same compound, the GI50 (PC-3) was 589 nM (active), the GI50 (OVCAR-5) was 3300 nM (inactive) and the GI50 (K562) was 128 nM (active). For the same compound, the GI50 (M14) was 2330 nM (inactive) and the GI50 (MOLT-4) was 687 nM (active).
`O=[N+]([O-])c1cccc2nc3ccccc3c(NCCCCCNc3c4ccccc4nc4cccc([N+](=O)[O-])c34)c12` was tested, and the GI50 (OVCAR-3) was 75 nM (active), the GI50 (HL-60) was 7.45 nM (active) and the GI50 (HCT-116) was 11.7 nM (active). For the same compound, the GI50 (EKVX) was 133 nM (active), the GI50 (SK-MEL-2) was 159 nM (active) and the GI50 (SNB-75) was 197 nM (active). For the same compound, the GI50 (Hs-578T) was 87.9 nM (active), the GI50 (MCF7) was 16.1 nM (active) and the GI50 (KM12) was 46.1 nM (active). For the same compound, the GI50 (SNB-19) was 116 nM (active), the GI50 (CAKI-1) was 47.6 nM (active) and the GI50 (HOP-92) was 19.9 nM (active). For the same compound, the GI50 (SF-268) was 31.3 nM (active), the GI50 (SF-295) was 137 nM (active) and the GI50 (SK-OV-3) was 190 nM (active). For the same compound, the GI50 (PC-3) was 102 nM (active), the GI50 (OVCAR-5) was 209 nM (active) and the GI50 (K562) was 4.66 nM (active). For the same compound, the GI50 (M14) was 60.7 nM (active) and the GI50 (MOLT-4) was 20.3 nM (active).
`COc1ccc2oc(C(=O)N3CC(CCl)c4ccc(N)cc43)cc2c1` (stereo not given) was tested, and the GI50 (OVCAR-3) was 918 nM (active), the GI50 (HL-60) was 415 nM (active) and the GI50 (HCT-116) was 161 nM (active). For the same compound, the GI50 (EKVX) was 933 nM (active), the GI50 (SK-MEL-2) was 238 nM (active) and the GI50 (SNB-75) was 308 nM (active). For the same compound, the GI50 (Hs-578T) was 857 nM (active), the GI50 (MCF7) was 465 nM (active) and the GI50 (KM12) was 242 nM (active). For the same compound, the GI50 (SNB-19) was 1140 nM (inactive), the GI50 (CAKI-1) was 185 nM (active) and the GI50 (HOP-92) was 358 nM (active). The GI50 (SF-268) was 354 nM (active), the GI50 (SF-295) was 344 nM (active) and the GI50 (SK-OV-3) was 1350 nM (inactive). The GI50 (PC-3) was 296 nM (active), the GI50 (OVCAR-5) was 530 nM (active) and the GI50 (K562) was 390 nM (active). The GI50 (M14) was 805 nM (active) and the GI50 (MOLT-4) was 255 nM (active).
For `C=CC[C@@]1(OC(C)=O)C(=O)C(=O)OC1C1COC(C)(C)O1` (stereo not given in full), the GI50 (OVCAR-3) was 17100 nM (inactive), the GI50 (HL-60) was 10800 nM (inactive) and the GI50 (HCT-116) was 13100 nM (inactive). For the same compound, the GI50 (EKVX) was 16400 nM (inactive), the GI50 (SK-MEL-2) was 21600 nM (inactive) and the GI50 (SNB-75) was 31800 nM (inactive). The GI50 (Hs-578T) was 31000 nM (inactive), the GI50 (MCF7) was 17300 nM (inactive) and the GI50 (KM12) was 15700 nM (inactive). The GI50 (SNB-19) was 70500 nM (inactive), the GI50 (CAKI-1) was 2080 nM (inactive) and the GI50 (HOP-92) was 14600 nM (inactive). The GI50 (SF-268) was 19500 nM (inactive), the GI50 (SF-295) was 32400 nM (inactive) and the GI50 (SK-OV-3) was 42500 nM (inactive). For the same compound, the GI50 (PC-3) was 20400 nM (inactive), the GI50 (OVCAR-5) was 19800 nM (inactive) and the GI50 (K562) was 15300 nM (inactive). The GI50 (M14) was 15700 nM (inactive) and the GI50 (MOLT-4) was 14300 nM (inactive).
In the case of `O=C(O)c1c(Br)c(Br)c(Br)c(Br)c1C1c2ccc(O)cc2Oc2cc(O)ccc21`, the GI50 (OVCAR-3) is reported as > 100000 nM (inactive), the GI50 (HL-60) is reported as 232 nM (active) and the GI50 (HCT-116) is reported as > 100000 nM (inactive). The GI50 (EKVX) was > 100000 nM (inactive), the GI50 (SK-MEL-2) was > 100000 nM (inactive) and the GI50 (SNB-75) was > 100000 nM (inactive). For the same compound, the GI50 (Hs-578T) was > 100000 nM (inactive), the GI50 (MCF7) was > 100000 nM (inactive) and the GI50 (KM12) was > 100000 nM (inactive). For the same compound, the GI50 (SNB-19) was > 100000 nM (inactive), the GI50 (CAKI-1) was > 100000 nM (inactive) and the GI50 (HOP-92) was > 100000 nM (inactive). The GI50 (SF-268) was > 100000 nM (inactive), the GI50 (SF-295) was > 100000 nM (inactive) and the GI50 (SK-OV-3) was > 100000 nM (inactive). For the same compound, the GI50 (PC-3) was > 100000 nM (inactive), the GI50 (OVCAR-5) was > 100000 nM (inactive) and the GI50 (K562) was > 100000 nM (inactive). The GI50 (M14) was > 100000 nM (inactive) and the GI50 (MOLT-4) was 3670 nM (inactive).
With `CN(C)C(=S)SN(C)C(=O)Nc1ccccc1` the GI50 (OVCAR-3) was 618 nM (active), the GI50 (HL-60) was 2860 nM (inactive) and the GI50 (HCT-116) was 8910 nM (inactive). For the same compound, the GI50 (EKVX) was > 86900 nM (inactive), the GI50 (SK-MEL-2) was 39400 nM (inactive) and the GI50 (SNB-75) was 28600 nM (inactive). The GI50 (Hs-578T) was > 100000 nM (inactive), the GI50 (MCF7) was 2670 nM (inactive) and the GI50 (KM12) was 12100 nM (inactive). The GI50 (SNB-19) was 80200 nM (inactive), the GI50 (CAKI-1) was 26100 nM (inactive) and the GI50 (HOP-92) was 3500 nM (inactive). For the same compound, the GI50 (SF-268) was 38400 nM (inactive), the GI50 (SF-295) was 49300 nM (inactive) and the GI50 (SK-OV-3) was > 87700 nM (inactive). The GI50 (PC-3) was 7430 nM (inactive), the GI50 (OVCAR-5) was 12200 nM (inactive) and the GI50 (K562) was 998 nM (active). For the same compound, the GI50 (M14) was 7460 nM (inactive) and the GI50 (MOLT-4) was 2760 nM (inactive).

Source: ChEMBL document CHEMBL1201862, “PubChem BioAssay data set” (2004)
